Six molecules from patent US20030215896A1, “Gamma secretase substrates and in vitro assays” (priority 2003, published 2003) can be followed below.

The subject of data set [1] is γ-secretase (HeLa cell membranes). The data set is described as follows: In vitro γ-secretase assay with HeLa cell membranes and SEQ. ID. NO. 9 substrate in presence of detergent, ECL. Conditions: for Effect of detergent on in vitro γ-secretase cleavage of substrate: SEQ. ID. NO. 9 substrate. It counts as biochemical, human. The protocol: HeLa S3 cells from American Type Culture Collection (Rockville, Md.) were grown in bioreactors (Analytical Biological Services; Wilmington, Del.) in 90% DMEM, 10% fetal bovine serum, 2 mM glutamine and 100 μg/ml each of penicillin and streptomycin. Frozen HeLa S3 cells were resuspended in buffer A (50 mM MES, pH 6.0, 5 mM MgCl2, 5 mM CaCl2, 150 mM KCl) containing “complete” protease inhibitor cocktail (Boehringer Mannheim, Indianapolis, Ind.). The cells were broken by single-pass through a French Press (Spectronic Instruments, Rochester, N.Y.). Cell debris and nuclei were removed by centrifugation at 800×g for 10 minutes. The supernatant solutions were centrifuged at 100,000×g for 60 minutes. The ensuing pellets were resuspended in buffer A and the centrifugation was repeated. The final membrane pellets were resuspended in buffer A to yield a protein concentration of approximately 12 mg/ml. All procedures were performed at 4° C. The membranes were stored at −70° C.
In vitro assays measuring γ-secretase activity were performed using cell membranes or as “solubilized γ-secretase”. In one reaction, SEQ. ID. NO. 9 substrate (1.7 μM) was incubated with cell membranes (0.5 mg/ml) in presence of detergent in buffer B (50 mM PIPES, pH 7.0, 5 mM MgCl2, 5 mM CaCl2, 150 mM KCl) at 37° C. In another reaction, supernatant solution from CHAPSO-extracted HeLa cell membranes (“solubilized γ-secretase”) was incubated with SEQ. ID. NO. 9 substrate at 37° C. in the presence of detergent in buffer B. Generally, 0.25% CHAPSO was provided as the detergent. The reactions were stopped by adding RIPA (150 mM NaCl, 1.0% NP-40, 0.5% DOC, 0.1% SDS, 50 mM Tris HCl, pH 8.0).
The samples were centrifuged and the supernatant solutions were assayed for the Aβ peptides by ECL. The Aβ40- and Aβ42-related products from γ-secretase-mediated processing of SEQ. ID. NO.
SEQ. ID. NO. 9 substrate (1.7 μM) was incubated with cell membranes (0.5 mg/ml) in presence of CHAPSO, CHAPS or Triton X-100 (0, 0.125, 0.25, 0.5, or 1%) in buffer B at 37° C.

Data set [2] relates to solubilized γ-secretase (CHAPSO-extracted HeLa cell membranes). The data set is described as follows: In vitro γ-secretase assay with "solubilized γ-secretase" and SEQ. ID. NO. 9 substrate, ECL. It counts as biochemical, human. Conditions: solubilized γ-secretase. As for the experimental part: (§1) The ensuing supernatant solution provides “solubilized γ-secretase”.
(§2) In vitro assays measuring γ-secretase activity were performed using cell membranes or as “solubilized γ-secretase”. In one reaction, SEQ. ID. NO. […] ID. NO.

Data set [3] deals with T1, solubilized γ-secretase (CHAPSO-extracted HeLa cell membranes) (Homo sapiens, UniProt P49768).
T1 construct: ID; NO; 9 su
The data set is described as above. Format: biochemical. Conditions: assaying for Aβ40 cleavage, FIG. 2A; read-out: Apparent Km value of solubilized γ-secretase for substrate. The protocol:
as §1, §2

In data set [4] the target is solubilized γ-secretase (supernatant solution from 1% CHAPSO-extracted HeLa S3 cell membranes). Nature of the data set: cell-based or functional assay.
Data set [5] relates to γ-secretase (HeLa cell membranes). The data set is described as follows: Extraction of γ-secretase activity from HeLa cell membranes with CHAPSO detergent. Format: biochemical, human. The protocol: HeLa S3 cells from American Type Culture Collection (Rockville, Md.) were grown in bioreactors (Analytical Biological Services; Wilmington, Del.) in 90% DMEM, 10% fetal bovine serum, 2 mM glutamine and 100 μg/ml each of penicillin and streptomycin. […] The cells were broken by single-pass through a French Press (Spectronic Instruments, Rochester, N.Y.). Cell debris and nuclei were removed by centrifugation at 800×g for 10 minutes. The supernatant solutions were centrifuged at 100,000×g for 60 minutes. The ensuing pellets were resuspended in buffer A and the centrifugation was repeated. The final membrane pellets were resuspended in buffer A to yield a protein concentration of approximately 12 mg/ml. All procedures were performed at 4° C. The membranes were stored at −70° C. […] The supernatant solutions (solubilized fractions) and the pellets (membrane fractions) were then assayed for γ-secretase activity with the SEQ. ID. NO. 9 substrate. […] The ensuing supernatant solution provides “solubilized γ-secretase”. […] In vitro assays measuring γ-secretase activity were performed using cell membranes or as “solubilized γ-secretase”. In one reaction, SEQ. ID. […] ID. NO. 9 substrate at 37° C. in the presence of detergent in buffer B.

The test system is the same in data set [6]. Nature of the data set: In vitro γ-secretase assay with HeLa cell membranes and SEQ. ID. NO. 9 substrate in presence of detergent, ECL. Format: biochemical, human. Conditions: detergent 0.75%.
The next data set deals with γ-secretase (Cricetulus griseus, UniProt G3HNF2). The data set is described as follows: Radiolabeling pulse-chase of CHO/APP695 cells, 4G8 immunoprecipitation, SDS-PAGE. Conditions: 1 μM, data not shown. Format: cell-based, Chinese hamster. As for the experimental part: The effect of a γ-secretase inhibitor on γ-secretase activity was measured using Chinese hamster ovary fibroblasts that stably express APP695 (CHO/APP695, provided by Dr. S. Sisodia (University of Chicago, Chicago, Ill.)). CHO/APP695 were grown in 90% DMEM, 10% fetal bovine serum, 2 mM glutamine, 100 μg/ml each of penicillin and streptomycin, and 0.2 mg/ml G418. CHO/APP695 cells were seeded in 96-well dishes at 2×10^4 cells/well. Aβ-peptide formation was detected by either ECL or using radiolabeling.
For the radiolabeling experiments, CHO/APP695 cells (in 100 mm dishes) were grown to 70% confluency in complete media. Afterwards, these cells were cultured±1 μM L-685,458 for 24 hours, switched to Met-free medium (±1 μM L-685,458) for 20 minutes, pulsed with 1 mCi/ml of S^35-Met (Amersham Life Sciences, Inc, Arlington Heights, Ill.) in Met-free medium (±1 μM L-685,458) for 2 hours, and subsequently chased in complete medium (±1 μM L-685,458) for 45 minutes. The cells were washed with Hanks balanced salt solution and lysed with 1 ml of RIPA. The insoluble residue was removed by centrifugation. The 4G8 antibody (final concentration, 2 μg/ml) was added to the supernatant fractions. The samples were gently rotated overnight at 4° C. Protein G-agarose beads (Pharmacia Biotech, Piscataway, N.J.) were added the next day, the samples were rotated for an additional 2 hours and then centrifuged. […]

As for “SEQ. ID. NO. 9 substrate: γ-secretase substrate: fusion protein of N-terminal Met, APP597-695 (β-CTF domain) and C-terminal Flag tag DYKDDDDK”, the Aβ42/Aβ40 cleavage ratio entry in data set [1] (intact membranes) and in data set [2] was “approximately 0.1” in each case. In addition, the Michaelis-Menten constant (Km) in data set [3] is around 1000 nM.

Take pepstatin (peptide): in data set [4], the IC50 for inhibiting the generation of the Aβ40 terminus (in vitro γ-secretase assay, ECL) is 4 µM and the IC50 for inhibiting the generation of the Aβ42 terminus (in vitro γ-secretase assay, ECL) was found to be 5.9 µM.

In the case of `C[C@H](CCC(=O)NCCC[N+](C)(C)CC(O)CS(=O)(=O)[O-])[C@H]1CC[C@H]2[C@@H]3[C@H](O)C[C@@H]4C[C@H](O)CC[C@]4(C)[C@H]3C[C@H](O)[C@]12C` (some centres unmarked) [CHAPSO], the “% of total γ-secretase activity in Membranes fraction” value worked out at 97% in data set [5] (CHAPSO 0.25%), 65% in data set [5] (CHAPSO 0.50%), 51% in data set [5] (CHAPSO 1.00%) and 50% in data set [5] (CHAPSO 2.0%). In addition, the “% of total γ-secretase activity in Solubilized fraction” value in data set [5] (CHAPSO 0.25%) is 3%; in data set [5] (CHAPSO 0.50%), 35%; in data set [5] (CHAPSO 2.0%), 50%. Moreover, in data set [1] (HeLa cell membranes), the “Detergent concentration giving optimal γ-secretase activity” value was 0.25%. Besides, the “Effect of detergent on in vitro γ-secretase cleavage of substrate” value (“Effect of detergent” for short) in data set [1] (HeLa cell membranes) was “promotes cleavage at the γ-secretase scissile bond”. The “M-Aβ 40 production” value in data set [1] (detergent 0.125%) is reported as 2.2 ECL signal × 10^−6; in data set [1] (detergent 0.25%), 8.74 ECL signal × 10^−6; in data set [1] (detergent 0.5%), 1.22 ECL signal × 10^−6; in data set [1] (detergent 1%), 0.03 ECL signal × 10^−6; in data set [6] it was 0.07 ECL signal × 10^−6.

`CC(C)C[C@H](NC(=O)[C@H](Cc1ccccc1)C[C@@H](O)[C@H](Cc1ccccc1)NC(=O)OC(C)(C)C)C(=O)N[C@@H](Cc1ccccc1)C(N)=O` [L-685,458]: at γ-secretase, the “Intracellular accumulation of APP fragments (α-CTF, β-CTF)” value was “intracellular accumulation of APP immunoreactive fragments that co-migrate with α-CTF and β-CTF”.

Turning to `C[C@H](CCC(=O)NCCC[N+](C)(C)CCCS(=O)(=O)[O-])[C@H]1CC[C@H]2[C@@H]3[C@H](O)C[C@@H]4C[C@H](O)CC[C@]4(C)[C@H]3C[C@H](O)[C@]12C` [CHAPS], the “Effect of detergent” value in data set [1] (HeLa cell membranes) is given as “promotes cleavage at the γ-secretase scissile bond”. Further, the “M-Aβ 40 production” value in data set [1] (detergent 0.125%) is 0.03 ECL signal × 10^−6; in data set [1] (detergent 0.25%) it was 3.21 ECL signal × 10^−6; in data set [1] (detergent 0.5%), 0.27 ECL signal × 10^−6; in data set [1] (detergent 1%) it was 0.03 ECL signal × 10^−6; in data set [6], 0.04 ECL signal × 10^−6.

On to Triton X-100, for which the “Effect of detergent” value in data set [1] (HeLa cell membranes) is “fails to potentiate in vitro γ-secretase activity”. Besides, the “M-Aβ 40 production” value in data set [1] (detergent 0.125%), in data set [1] (detergent 0.25%), in data set [1] (detergent 0.5%), in data set [1] (detergent 1%) and in data set [6] was 0.02 ECL signal × 10^−6 in each case.

By Km is commonly meant the substrate concentration at which the rate is half of its maximum.
